Reference: ChEMBL document CHEMBL1201862, “PubChem BioAssay data set” (2004)
Activity calls are given as the source filed them.

Assays:
[1] = viability of uninfected HEp-2 cells – cell-based, HTS, cytotoxicity control for RSV inhibitor project, dose response (AID 2410); assay type: functional; conditions: human respiratory syncytial virus
[2] = target: T1, Delta-type opioid receptor (Homo sapiens, UniProt P41143); experiment: HTS Image-Based Screen for Antagonists of the DOR Receptor. [Related pubchem assays (depositor defined):AID1777, AID1785, AID1786, AID2133]; assay type: functional
T1 sequence (P41143 whole entry): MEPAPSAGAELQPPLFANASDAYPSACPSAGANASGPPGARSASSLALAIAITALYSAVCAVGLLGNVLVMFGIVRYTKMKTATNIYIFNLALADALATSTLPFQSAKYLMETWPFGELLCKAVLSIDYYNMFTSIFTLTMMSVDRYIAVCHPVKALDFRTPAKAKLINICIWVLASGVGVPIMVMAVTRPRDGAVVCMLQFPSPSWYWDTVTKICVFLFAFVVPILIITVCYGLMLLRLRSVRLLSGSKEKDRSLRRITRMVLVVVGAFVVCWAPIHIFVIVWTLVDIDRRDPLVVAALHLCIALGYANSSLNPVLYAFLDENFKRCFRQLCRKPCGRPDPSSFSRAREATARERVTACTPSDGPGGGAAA

Mu-type opioid receptor = Mu-type opioid receptor (Homo sapiens, UniProt P35372); experiment: HTS Image-Based Screen for Agonists of the MOR Receptor. [Related pubchem assays (depositor defined):AID1777, AID1785, AID1786, AID2133]; assay type: functional;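 also: imaging of beta-arrestin GFP recruitment into spots after receptor activation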
Mu-type opioid receptor, sequence (P35372 whole entry): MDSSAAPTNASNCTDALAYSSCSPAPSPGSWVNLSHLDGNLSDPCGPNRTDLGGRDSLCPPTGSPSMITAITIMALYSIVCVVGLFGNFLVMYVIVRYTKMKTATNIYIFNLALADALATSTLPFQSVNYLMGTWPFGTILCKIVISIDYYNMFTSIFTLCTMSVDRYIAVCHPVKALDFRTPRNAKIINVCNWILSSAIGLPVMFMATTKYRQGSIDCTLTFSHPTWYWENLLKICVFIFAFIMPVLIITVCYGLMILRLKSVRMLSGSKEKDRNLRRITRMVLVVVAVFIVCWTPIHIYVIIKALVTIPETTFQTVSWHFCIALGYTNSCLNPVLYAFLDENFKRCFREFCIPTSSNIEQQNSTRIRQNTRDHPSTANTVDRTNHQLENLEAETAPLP

[3] = target: T1, Delta-type opioid receptor; experiment: HTS Image-Based Screen for Agonists of the DOR Receptor. [Related pubchem assays (depositor defined):AID1777, AID1786, AID2133]; assay type: functional
[4] = target: T2, Kappa-type opioid receptor (Homo sapiens, UniProt P41145); assay type: functional
T2 sequence (P41145 whole entry): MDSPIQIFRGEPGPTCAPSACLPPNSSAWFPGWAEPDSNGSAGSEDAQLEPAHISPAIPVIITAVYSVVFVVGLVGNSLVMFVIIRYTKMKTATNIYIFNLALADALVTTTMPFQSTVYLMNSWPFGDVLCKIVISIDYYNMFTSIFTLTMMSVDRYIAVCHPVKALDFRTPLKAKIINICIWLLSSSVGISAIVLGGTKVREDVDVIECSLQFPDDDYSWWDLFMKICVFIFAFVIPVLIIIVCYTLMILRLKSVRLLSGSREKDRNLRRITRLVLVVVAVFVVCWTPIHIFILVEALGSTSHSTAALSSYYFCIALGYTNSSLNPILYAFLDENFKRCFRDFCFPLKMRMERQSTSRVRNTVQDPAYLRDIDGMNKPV

Beta-galactosidase = Beta-galactosidase (Escherichia coli, UniProt Q8VNN2); assay type: functional
Beta-galactosidase, sequence (Q8VNN2 whole entry): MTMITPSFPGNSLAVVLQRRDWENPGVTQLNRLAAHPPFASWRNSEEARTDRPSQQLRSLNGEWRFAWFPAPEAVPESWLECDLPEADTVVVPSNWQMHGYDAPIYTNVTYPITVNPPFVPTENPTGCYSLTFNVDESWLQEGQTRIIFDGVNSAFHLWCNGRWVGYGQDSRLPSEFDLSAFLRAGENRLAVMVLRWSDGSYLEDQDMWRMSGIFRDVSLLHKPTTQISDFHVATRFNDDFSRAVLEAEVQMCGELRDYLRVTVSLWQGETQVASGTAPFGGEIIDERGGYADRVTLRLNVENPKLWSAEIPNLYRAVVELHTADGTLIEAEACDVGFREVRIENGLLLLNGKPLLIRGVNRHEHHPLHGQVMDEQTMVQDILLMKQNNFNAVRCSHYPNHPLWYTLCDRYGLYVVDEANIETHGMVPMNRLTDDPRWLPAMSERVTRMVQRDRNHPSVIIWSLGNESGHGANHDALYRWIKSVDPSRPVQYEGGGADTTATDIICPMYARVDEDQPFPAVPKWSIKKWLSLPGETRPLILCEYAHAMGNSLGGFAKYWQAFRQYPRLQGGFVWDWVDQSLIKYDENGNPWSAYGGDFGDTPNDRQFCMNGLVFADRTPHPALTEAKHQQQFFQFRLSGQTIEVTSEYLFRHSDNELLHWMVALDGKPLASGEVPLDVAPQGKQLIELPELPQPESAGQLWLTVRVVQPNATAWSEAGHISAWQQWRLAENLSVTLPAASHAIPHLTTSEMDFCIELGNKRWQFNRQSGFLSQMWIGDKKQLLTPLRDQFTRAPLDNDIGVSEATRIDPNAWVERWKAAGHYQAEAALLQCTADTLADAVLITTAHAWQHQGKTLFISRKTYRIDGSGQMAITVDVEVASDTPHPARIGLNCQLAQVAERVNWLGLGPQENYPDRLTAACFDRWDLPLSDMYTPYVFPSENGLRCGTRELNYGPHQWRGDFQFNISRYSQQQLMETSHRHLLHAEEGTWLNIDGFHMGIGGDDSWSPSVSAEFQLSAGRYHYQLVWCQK

[5] = target: T2, Kappa-type opioid receptor; assay type: functional; remark: listed apart in the source
Cytochrome P450 1A2 = target: T3, Cytochrome P450 1A2 (Homo sapiens, UniProt P05177);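 also: PubChem cytochrome P450 panel assay, CYP1A2 panel member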
T3 sequence (P05177 whole entry): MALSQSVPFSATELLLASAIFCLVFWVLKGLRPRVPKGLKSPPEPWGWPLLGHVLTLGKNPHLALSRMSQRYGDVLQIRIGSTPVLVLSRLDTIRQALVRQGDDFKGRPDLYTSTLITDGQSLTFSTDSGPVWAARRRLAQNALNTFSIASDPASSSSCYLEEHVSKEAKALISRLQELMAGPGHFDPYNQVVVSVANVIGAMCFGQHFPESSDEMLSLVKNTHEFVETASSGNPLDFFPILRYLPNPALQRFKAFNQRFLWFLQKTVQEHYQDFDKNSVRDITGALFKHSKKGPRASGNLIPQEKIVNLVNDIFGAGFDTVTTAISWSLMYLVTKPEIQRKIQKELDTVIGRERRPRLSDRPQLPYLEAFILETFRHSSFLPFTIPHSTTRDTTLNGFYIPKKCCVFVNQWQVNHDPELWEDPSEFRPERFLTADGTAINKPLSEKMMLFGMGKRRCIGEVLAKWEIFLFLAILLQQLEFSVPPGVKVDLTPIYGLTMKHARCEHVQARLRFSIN

HEK293 [6] = experiment: inhibition of NOD1-driven NF-kB reporter – cell-based, luminescence, uHTS, primary screen (AID 1578); assay type: functional; conditions: Homo sapiens
HEK293 [7] = experiment: cells; assay type: functional, cell-based; conditions: Homo sapiens
HEK293 [8] = experiment: cells; assay type: functional, cell-based; conditions: Homo sapiens; remark: listed apart in the source
[9] = target: Nucleotide-binding oligomerization domain-containing protein 2 (Homo sapiens, UniProt Q9HC29); experiment: inhibition of NOD2-driven NF-kB reporter – cell-based, luminescence, uHTS, HEK293 (AID 1566); assay type: functional
Nucleotide-binding oligomerization domain-containing protein 2, sequence (Q9HC29 whole entry, the tested form may be a part): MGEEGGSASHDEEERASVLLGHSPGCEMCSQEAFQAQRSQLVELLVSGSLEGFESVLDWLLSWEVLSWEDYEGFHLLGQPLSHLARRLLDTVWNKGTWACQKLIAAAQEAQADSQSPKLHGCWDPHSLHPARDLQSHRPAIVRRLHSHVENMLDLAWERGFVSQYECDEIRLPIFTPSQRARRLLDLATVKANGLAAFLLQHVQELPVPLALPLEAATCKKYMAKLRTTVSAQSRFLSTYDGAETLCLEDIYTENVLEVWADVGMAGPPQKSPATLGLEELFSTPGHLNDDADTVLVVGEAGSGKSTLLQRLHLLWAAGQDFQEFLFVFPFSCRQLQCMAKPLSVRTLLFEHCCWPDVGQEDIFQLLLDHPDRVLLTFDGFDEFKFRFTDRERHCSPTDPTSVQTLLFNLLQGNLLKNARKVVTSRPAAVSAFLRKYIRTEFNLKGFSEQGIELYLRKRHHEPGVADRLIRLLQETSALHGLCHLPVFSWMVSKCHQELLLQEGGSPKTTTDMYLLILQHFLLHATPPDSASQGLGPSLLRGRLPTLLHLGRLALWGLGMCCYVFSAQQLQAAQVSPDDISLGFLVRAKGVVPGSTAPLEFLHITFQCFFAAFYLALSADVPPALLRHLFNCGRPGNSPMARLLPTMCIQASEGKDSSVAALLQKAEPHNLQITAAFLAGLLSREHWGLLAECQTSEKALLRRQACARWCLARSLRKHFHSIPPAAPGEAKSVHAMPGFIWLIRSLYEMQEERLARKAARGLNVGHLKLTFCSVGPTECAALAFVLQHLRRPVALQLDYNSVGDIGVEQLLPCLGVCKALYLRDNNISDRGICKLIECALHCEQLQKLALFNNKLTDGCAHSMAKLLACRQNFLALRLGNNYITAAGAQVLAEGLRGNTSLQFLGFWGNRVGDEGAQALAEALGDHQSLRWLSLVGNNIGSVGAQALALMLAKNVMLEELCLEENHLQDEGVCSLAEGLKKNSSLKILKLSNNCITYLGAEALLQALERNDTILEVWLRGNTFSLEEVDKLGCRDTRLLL

HEK293 [10] = experiment: NOD2 signaling inhibitors in MDP-stimulated cells, cell-based, uHTS, luminescence (AID 2001); assay type: functional; conditions: Homo sapiens
HEK293 [11] = experiment: cells; assay type: functional, cell-based; conditions: Homo sapiens; remark: listed apart in the source
Exodeoxyribonuclease V = Exodeoxyribonuclease V (Escherichia coli (strain K12), UniProt P04993+P07648+P08394); experiment: RecBCD inhibition via phage-restricted bacterial growth – absorbance, V66 E. coli, mutant T4 phage, counter-screen for AddAB inhibitor project, dose response (AID 492957); assay type: functional, cell-based, Escherichia coli str. K-12 substr. MG1655
[12] = THP-1 cell cytotoxicity, dose response, cytotoxicity control for non-replicating M. tuberculosis project (AID 489025); assay type: functional
[13] = Counterscreen for AddAB inhibitors: absorbance-based bacterial cell-based high throughput dose response assay for inhibitors of bacterial viability. [Related pubchem assays (depositor defined):AID435030, AID449728, AID449731, AID488942, AID488955, AID488956]; assay type: functional
cells = assay type: functional
[14] = target: T4, Mannose-6-phosphate isomerase (Homo sapiens, UniProt P34949); experiment: phosphomannose isomerase inhibition – biochemical, fluorescence intensity, confirmation (AID 1535)
T4 sequence (P34949 whole entry): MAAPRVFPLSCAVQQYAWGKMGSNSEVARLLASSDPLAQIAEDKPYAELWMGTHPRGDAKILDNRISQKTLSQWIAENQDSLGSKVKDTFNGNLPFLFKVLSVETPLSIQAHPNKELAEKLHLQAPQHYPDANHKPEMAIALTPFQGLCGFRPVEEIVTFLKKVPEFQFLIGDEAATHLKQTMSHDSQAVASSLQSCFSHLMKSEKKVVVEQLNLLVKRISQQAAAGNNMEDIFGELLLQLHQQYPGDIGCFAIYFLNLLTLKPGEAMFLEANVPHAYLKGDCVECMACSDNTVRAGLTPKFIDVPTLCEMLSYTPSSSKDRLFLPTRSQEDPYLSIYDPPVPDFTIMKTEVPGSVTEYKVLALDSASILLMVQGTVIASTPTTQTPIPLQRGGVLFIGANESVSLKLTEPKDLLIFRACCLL

Phosphomannomutase 2 = Phosphomannomutase 2 (Homo sapiens, UniProt O15305); experiment: Counter screen SAR assay for PMM2 inhibitors via a fluorescence intensity assay. [Related pubchem assays (depositor defined):AID1545, AID1574]
Phosphomannomutase 2, sequence (O15305 whole entry): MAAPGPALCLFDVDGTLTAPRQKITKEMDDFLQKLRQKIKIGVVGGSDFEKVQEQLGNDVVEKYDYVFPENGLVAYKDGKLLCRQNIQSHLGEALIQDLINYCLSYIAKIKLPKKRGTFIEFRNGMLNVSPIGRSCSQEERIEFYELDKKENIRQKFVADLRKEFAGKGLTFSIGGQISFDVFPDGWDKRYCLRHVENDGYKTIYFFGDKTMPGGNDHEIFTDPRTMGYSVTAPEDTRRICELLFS

[15] = target: T5, Tyrosine-protein phosphatase non-receptor type 7 (Homo sapiens, UniProt P35236); assay type: functional
T5 sequence (P35236 whole entry): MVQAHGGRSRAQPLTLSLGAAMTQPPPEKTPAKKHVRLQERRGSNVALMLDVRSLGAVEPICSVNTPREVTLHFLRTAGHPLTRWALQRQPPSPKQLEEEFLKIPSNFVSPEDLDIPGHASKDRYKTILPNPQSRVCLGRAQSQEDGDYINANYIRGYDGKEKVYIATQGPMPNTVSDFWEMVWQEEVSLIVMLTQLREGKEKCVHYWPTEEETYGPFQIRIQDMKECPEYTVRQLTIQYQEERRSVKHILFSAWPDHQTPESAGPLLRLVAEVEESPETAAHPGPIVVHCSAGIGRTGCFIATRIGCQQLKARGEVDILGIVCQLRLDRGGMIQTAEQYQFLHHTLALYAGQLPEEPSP

[16] = target: T6, Tyrosine-protein phosphatase non-receptor type 22 (Homo sapiens, UniProt Q9Y2R2); assay type: functional
T6 sequence (Q9Y2R2 whole entry): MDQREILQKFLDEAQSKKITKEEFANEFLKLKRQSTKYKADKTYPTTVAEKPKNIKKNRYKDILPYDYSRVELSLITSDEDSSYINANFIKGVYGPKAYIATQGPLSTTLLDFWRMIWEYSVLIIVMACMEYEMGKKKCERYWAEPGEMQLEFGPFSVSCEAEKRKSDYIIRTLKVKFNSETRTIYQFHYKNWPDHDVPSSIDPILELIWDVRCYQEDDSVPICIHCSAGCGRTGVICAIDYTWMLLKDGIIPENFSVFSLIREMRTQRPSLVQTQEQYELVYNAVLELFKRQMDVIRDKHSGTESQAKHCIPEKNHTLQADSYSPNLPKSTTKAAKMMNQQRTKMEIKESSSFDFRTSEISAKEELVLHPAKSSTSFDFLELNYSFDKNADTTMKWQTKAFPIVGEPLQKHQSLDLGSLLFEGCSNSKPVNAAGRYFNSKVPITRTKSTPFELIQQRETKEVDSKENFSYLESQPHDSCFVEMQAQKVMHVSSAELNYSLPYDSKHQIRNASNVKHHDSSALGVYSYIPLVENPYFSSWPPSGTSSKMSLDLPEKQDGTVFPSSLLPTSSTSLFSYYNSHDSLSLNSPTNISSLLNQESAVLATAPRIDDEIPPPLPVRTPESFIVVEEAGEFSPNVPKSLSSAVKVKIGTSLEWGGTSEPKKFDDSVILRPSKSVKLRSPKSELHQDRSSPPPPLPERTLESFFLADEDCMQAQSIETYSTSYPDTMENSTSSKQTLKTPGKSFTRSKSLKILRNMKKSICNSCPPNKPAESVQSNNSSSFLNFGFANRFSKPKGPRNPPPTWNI

Hexokinase HKDC1 = target: T7, Hexokinase HKDC1 (Homo sapiens, UniProt Q2TB90); experiment: activation of HKDC1 glucose phosphorylation – biochemical, W721R variant, dose response (AID 504730); assay type: functional
T7 sequence (Q2TB90 whole entry): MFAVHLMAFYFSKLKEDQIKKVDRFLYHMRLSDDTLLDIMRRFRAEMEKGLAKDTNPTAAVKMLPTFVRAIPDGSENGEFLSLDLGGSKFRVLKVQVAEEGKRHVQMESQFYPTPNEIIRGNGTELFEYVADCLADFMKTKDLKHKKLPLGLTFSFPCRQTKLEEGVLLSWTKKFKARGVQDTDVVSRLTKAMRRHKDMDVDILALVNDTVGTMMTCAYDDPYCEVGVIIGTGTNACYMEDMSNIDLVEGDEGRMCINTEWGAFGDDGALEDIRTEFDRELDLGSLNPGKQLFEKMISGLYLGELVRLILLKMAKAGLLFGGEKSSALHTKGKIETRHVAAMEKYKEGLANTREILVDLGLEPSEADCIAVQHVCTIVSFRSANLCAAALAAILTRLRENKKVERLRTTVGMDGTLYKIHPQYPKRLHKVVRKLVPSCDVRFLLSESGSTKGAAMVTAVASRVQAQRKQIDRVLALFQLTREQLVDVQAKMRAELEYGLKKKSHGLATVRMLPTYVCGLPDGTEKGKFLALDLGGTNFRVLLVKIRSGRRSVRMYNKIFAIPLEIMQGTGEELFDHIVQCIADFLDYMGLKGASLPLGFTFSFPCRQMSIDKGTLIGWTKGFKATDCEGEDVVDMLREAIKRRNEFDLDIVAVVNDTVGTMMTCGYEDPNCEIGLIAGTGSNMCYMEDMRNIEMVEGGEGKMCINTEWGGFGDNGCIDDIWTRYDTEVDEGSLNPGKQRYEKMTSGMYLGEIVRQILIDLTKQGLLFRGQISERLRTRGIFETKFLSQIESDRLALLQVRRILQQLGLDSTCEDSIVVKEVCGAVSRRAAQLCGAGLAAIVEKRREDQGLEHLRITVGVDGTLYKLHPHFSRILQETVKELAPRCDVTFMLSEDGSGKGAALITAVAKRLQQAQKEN

[17] = target: T6, Tyrosine-protein phosphatase non-receptor type 22; assay type: functional; remark: listed apart in the source
Hexokinase-1 = target: T8, Hexokinase-1 (Homo sapiens, UniProt P19367); experiment: HK1 enzyme activation by HKDC1 hits – biochemical, selectivity assay for HKDC1 activator project, dose response (AID 504762); assay type: functional
T8 sequence (P19367 whole entry): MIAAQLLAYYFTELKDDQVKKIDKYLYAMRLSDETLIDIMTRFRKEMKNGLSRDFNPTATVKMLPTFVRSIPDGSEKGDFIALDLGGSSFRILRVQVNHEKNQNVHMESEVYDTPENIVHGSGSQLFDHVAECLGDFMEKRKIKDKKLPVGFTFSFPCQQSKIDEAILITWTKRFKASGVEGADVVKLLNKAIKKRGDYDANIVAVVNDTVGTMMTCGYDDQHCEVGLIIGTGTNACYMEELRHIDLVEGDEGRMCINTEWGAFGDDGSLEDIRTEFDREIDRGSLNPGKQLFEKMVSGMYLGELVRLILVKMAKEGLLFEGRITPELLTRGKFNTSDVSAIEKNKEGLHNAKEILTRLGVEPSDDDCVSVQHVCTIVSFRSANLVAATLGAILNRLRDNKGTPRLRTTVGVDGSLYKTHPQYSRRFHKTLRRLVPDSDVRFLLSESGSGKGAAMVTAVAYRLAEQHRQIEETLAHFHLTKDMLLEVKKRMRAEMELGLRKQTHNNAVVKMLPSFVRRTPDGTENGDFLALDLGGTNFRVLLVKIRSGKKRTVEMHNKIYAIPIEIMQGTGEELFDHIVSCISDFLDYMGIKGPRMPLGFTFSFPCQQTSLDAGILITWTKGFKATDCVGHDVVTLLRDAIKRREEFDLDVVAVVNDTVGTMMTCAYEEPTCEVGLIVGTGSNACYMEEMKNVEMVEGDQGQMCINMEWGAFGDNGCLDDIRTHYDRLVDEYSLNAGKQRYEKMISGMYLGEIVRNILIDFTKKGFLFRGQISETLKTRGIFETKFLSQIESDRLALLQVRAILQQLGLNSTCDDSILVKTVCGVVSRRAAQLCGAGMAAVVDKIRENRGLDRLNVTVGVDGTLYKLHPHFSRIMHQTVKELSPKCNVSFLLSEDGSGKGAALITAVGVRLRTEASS

Nc1c2c(nc3sc4c(c13)CCCC4)CCCC2
6.99 µM: IC50 [5]
inactive: IC50 [2] > 32 µM | EC50 (Mu-type opioid receptor) > 32 µM | EC50 [3] > 32 µM | EC50 (Beta-galactosidase) > 31.5 µM
active: CC50 [1] 25.7 µM | IC50 [4] 9.82 µM

N[C@H]1[C@@H](C(=O)O)[C@H]2C=C[C@H]1C2.O=S(=O)(O)c1ccccc1
inactive: AC50 (Cytochrome P450 1A2)

Nc1nonc1C(=O)N/N=C/c1ccc([N+](=O)[O-])o1
inactive: IC50 (HEK293 [7]) > 20 µM | IC50 (HEK293 [8]) > 20 µM | IC50 (HEK293 [10]) > 20 µM | IC50 (HEK293 [11]) > 20 µM | IC50 (Exodeoxyribonuclease V) 56.4 µM | IC50 [13] 14.9 µM
active: EC50 (HEK293 [6]) 8.5 µM | EC50 [9] 5.54 µM | CC50 [12] > 40 µM | IC50 (cells) 7.01 µM

CCc1cc(CC)c(/N=c2\ssnc2Cl)c(CC)c1
inactive: IC50 [14] > 100 µM | IC50 (Phosphomannomutase 2) > 100 µM

COc1cc(SC#N)ccc1/N=C/c1c(C)[nH]n(-c2ccc(Cl)cc2)c1=O
inactive: IC50 [15] > 79.4 µM | IC50 [16] > 79.4 µM | EC50 (Hexokinase HKDC1) > 80 µM | IC50 [17] > 79.4 µM | EC50 (Hexokinase-1) > 80 µM
